Reference: US8748415B2 (priority 2011, dated 2014)

These molecules were tested on recombinant NL4-3 virus (Renilla luciferase in nef, Gag P373S) (assay: HIV cell culture assay (luciferase activity in MT-2 cells infected with NLRluc recombinant virus)). Details: NL43, MT-2 cells infected 4-5 days with NLRluc recombinant virus, class symbol.
Format: cell-based
Method in brief: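 MT-2 cells in RPMI/10% FBS were infected with recombinant NL4-3 (NLRluc), produced by 293T transfection and titered in MT-2 by luciferase. Serial inhibitor dilutions were present throughout a 4–5 day infection. Antiviral activity was quantified as Renilla luciferase signal via a modified Dual Luciferase read.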

SMILES | EC50 [nM]
C=C(C)[C@@H]1CC[C@]2(CNCCC(=O)NCCC(=O)N(C)C)CC[C@]3(C)[C@H](CC[C@@H]4[C@@]5(C)CC=C(c6ccc(C(=O)O)cc6)C(C)(C)[C@@H]5CC[C@]43C)[C@@H]12 [Example 99, 4-((1R,3aS,5aR,5bR,7aR,11aS,11bR,13aR,13bR)-3a-((3-(3-(dimethylamino)-3-oxopropylamino)-3-oxopropylamino)methyl)-5a,5b,8,8,11a-pentamethyl-1-(prop-1-en-2-yl)-2,3,3a,4,5,5a,5b,6,7,7a,8,11,11a,11b,12,13,13a,13b-octadecahydro-1H-cyclopenta[a]chrysen-9-yl)benzoic acid] | < 100
C=C(C)[C@@H]1CC[C@]2(CNCCCN3CCCC3=O)CC[C@]3(C)[C@H](CC[C@@H]4[C@@]5(C)CC=C(c6ccc(C(=O)O)cc6)C(C)(C)[C@@H]5CC[C@]43C)[C@@H]12 [Example 58, 4-((1R,3aS,5aR,5bR,7aR,11aS,11bR,13aR,13bR)-5a,5b,8,8,11a-pentamethyl-3a-((3-(2-oxopyrrolidin-1-yl)propylamino)methyl)-1-(prop-1-en-2-yl)-2,3,3a,4,5,5a,5b,6,7,7a,8,11,11a,11b,12,13,13a,13b-octadecahydro-1H-cyclopenta[a]chrysen-9-yl)benzoic acid] | < 100
C=C(C)[C@@H]1CC[C@]2(CNCC3(CN4CCCC4)CC3)CC[C@]3(C)[C@H](CC[C@@H]4[C@@]5(C)CC=C(c6ccc(C(=O)O)cc6)C(C)(C)[C@@H]5CC[C@]43C)[C@@H]12 [Example 66, 4-((1R,3aS,5aR,5bR,7aR,11aS,11bR,13aR,13bR)-5a,5b,8,8,11a-pentamethyl-1-(prop-1-en-2-yl)-3a-(((1-(pyrrolidin-1-ylmethyl)cyclopropyl)methylamino)methyl)-2,3,3a,4,5,5a,5b,6,7,7a,8,11,11a,11b,12,13,13a,13b-octadecahydro-1H-cyclopenta[a]chrysen-9-yl)benzoic acid] | < 100
C=C(C)[C@@H]1CC[C@]2(CNC3(CN(CC)CC)CC3)CC[C@]3(C)[C@H](CC[C@@H]4[C@@]5(C)CC=C(c6ccc(C(=O)O)cc6)C(C)(C)[C@@H]5CC[C@]43C)[C@@H]12 [Example 52, 4-((1R,3aS,5aR,5bR,7aR,11aS,11bR,13aR,13bR)-3a-((1-((diethylamino)methyl)cyclopropylamino)methyl)-5a,5b,8,8,11a-pentamethyl-1-(prop-1-en-2-yl)-2,3,3a,4,5,5a,5b,6,7,7a,8,11,11a,11b,12,13,13a,13b-octadecahydro-1H-cyclopenta[a]chrysen-9-yl)benzoic acid] | < 100
C=C(C)[C@@H]1CC[C@]2(CNC(C)C)CC[C@]3(C)[C@H](CC[C@@H]4[C@@]5(C)CC=C(c6ccc(C(=O)O)cc6)C(C)(C)[C@@H]5CC[C@]43C)[C@@H]12 [Example 175, 4-((1R,3aS,5aR,5bR,7aR,11aS,11bR,13aR,13bR)-3a-((isopropylamino)methyl)-5a,5b,8,8,11a-pentamethyl-1-(prop-1-en-2-yl)-2,3,3a,4,5,5a,5b,6,7,7a,8,11,11a,11b,12,13,13a,13b-octadecahydro-1H-cyclopenta[a]chrysen-9-yl)benzoic acid] | < 100
C=C(C)[C@@H]1CC[C@]2(CNCCC(=O)N3CCCC3)CC[C@]3(C)[C@H](CC[C@@H]4[C@@]5(C)CC=C(c6ccc(C(=O)O)c(F)c6)C(C)(C)[C@@H]5CC[C@]43C)[C@@H]12 [Example 90, 2-fluoro-4-((1R,3aS,5aR,5bR,7aR,11aS,11bR,13aR,13bR)-5a,5b,8,8,11a-pentamethyl-3a-((3-oxo-3-(pyrrolidin-1-yl)propylamino)methyl)-1-(prop-1-en-2-yl)-2,3,3a,4,5,5a,5b,6,7,7a,8,11,11a,11b,12,13,13a,13b-octadecahydro-1H-cyclopenta[a]chrysen-9-yl)benzoic acid] | < 100
C=C(C)[C@@H]1CC[C@]2(CN(CCCN3CCS(=O)(=O)CC3)C(C)=O)CC[C@]3(C)[C@H](CC[C@@H]4[C@@]5(C)CC=C(c6ccc(C(=O)O)cc6)C(C)(C)[C@@H]5CC[C@]43C)[C@@H]12 [Example 17, 4-((1R,3aS,5aR,5bR,7aR,11aS,11bR,13aR,13bR)-5a,5b,8,8,11a-pentamethyl-1-(prop-1-en-2-yl)-3a-((3-(1-dioxo-thiomorpholino)propylamino)methyl)-2,3,3a,4,5,5a,5b,6,7,7a,8,11,11a,11b,12,13,13a,13b-octadecahydro-1H-cyclopenta[a]chrysen-9-yl)benzoic acid] | < 100
C=C(C)[C@@H]1CC[C@]2(CNCCC(=O)N3CCC[C@H]3C(=O)OC)CC[C@]3(C)[C@H](CC[C@@H]4[C@@]5(C)CC=C(c6ccc(C(=O)O)cc6)C(C)(C)[C@@H]5CC[C@]43C)[C@@H]12 [Example 101, 4-((1R,3aS,5aR,5bR,7aR,11aS,11bR,13aR,13bR)-3a-((3-((S)-2-(methoxycarbonyl)pyrrolidin-1-yl)-3-oxopropylamino)methyl)-5a,5b,8,8,11a-pentamethyl-1-(prop-1-en-2-yl)-2,3,3a,4,5,5a,5b,6,7,7a,8,11,11a,11b,12,13,13a,13b-octadecahydro-1H-cyclopenta[a]chrysen-9-yl)benzoic acid] | < 100
C=C(C)[C@@H]1CC[C@]2(CNC(=O)CCN3CCS(=O)(=O)CC3)CC[C@]3(C)[C@H](CC[C@@H]4[C@@]5(C)CC=C(c6ccc(C(=O)O)cc6)C(C)(C)[C@@H]5CC[C@]43C)[C@@H]12 [Example 146, 4-((1R,3aS,5aR,5bR,7aR,11aS,11bR,13aR,13bR)-3a-(((3-(1,1-dioxido-4-thiomorpholinyl)propanoyl)amino)methyl)-1-isopropenyl-5a,5b,8,8,11a-pentamethyl-2,3,3a,4,5,5a,5b,6,7,7a,8,11,11a,11b,12,13,13a,13b-octadecahydro-1H-cyclopenta[a]chrysen-9-yl)benzoic acid] | < 100
C=C(C)[C@@H]1CC[C@]2(CNCCC(=O)N3CCN(CCS(C)(=O)=O)CC3)CC[C@]3(C)[C@H](CC[C@@H]4[C@@]5(C)CC=C(c6ccc(C(=O)O)cc6)C(C)(C)[C@@H]5CC[C@]43C)[C@@H]12 [Example 124, 4-((1R,3aS,5aR,5bR,7aR,11aS,11bR,13aR,13bR)-5a,5b,8,8,11a-pentamethyl-3a-((3-(4-(2-(methylsulfonyl)ethyl)piperazin-1-yl)-3-oxopropylamino)methyl)-1-(prop-1-en-2-yl)-2,3,3a,4,5,5a,5b,6,7,7a,8,11,11a,11b,12,13,13a,13b-octadecahydro-1H-cyclopenta[a]chrysen-9-yl)benzoic acid] | < 100
C=C(C)[C@@H]1CC[C@]2(CNCCCN3CCS(=O)(=O)CC3)CC[C@]3(C)[C@H](CC[C@@H]4[C@@]5(C)CC=C(c6ccc(C(=O)O)cc6)C(C)(C)[C@@H]5CC[C@]43C)[C@@H]12 [Example 14, 4-((1R,3aS,5aR,5bR,7aR,11aS,11bR,13aR,13bR)-5a,5b,8,8,11a-pentamethyl-1-(prop-1-en-2-yl)-3a-((3-(1-dioxo-thiomorpholino)propylamino)methyl)-2,3,3a,4,5,5a,5b,6,7,7a,8,11,11a,11b,12,13,13a,13b-octadecahydro-1H-cyclopenta[a]chrysen-9-yl)benzoic acid] | < 100
C=C(C)[C@@H]1CC[C@]2(CNCCc3c[nH]cn3)CC[C@]3(C)[C@H](CC[C@@H]4[C@@]5(C)CC=C(c6ccc(C(=O)O)cc6)C(C)(C)[C@@H]5CC[C@]43C)[C@@H]12 [Example 25, 4-((1R,3aS,5aR,5bR,7aR,11aS,11bR,13aR,13bR)-3a-((2-(1H-imidazol-4-yl)ethylamino)methyl)-5a,5b,8,8,11a-pentamethyl-1-(prop-1-en-2-yl)-2,3,3a,4,5,5a,5b,6,7,7a,8,11,11a,11b,12,13,13a,13b-octadecahydro-1H-cyclopenta[a]chrysen-9-yl)benzoic acid] | < 100
C=C(C)[C@@H]1CC[C@]2(CNC3(C(=O)O)CC3)CC[C@]3(C)[C@H](CC[C@@H]4[C@@]5(C)CC=C(c6ccc(C(=O)O)cc6)C(C)(C)[C@@H]5CC[C@]43C)[C@@H]12 [Example 50, 4-((1R,3aS,5aR,5bR,7aR,11aS,11bR,13aR,13bR)-3a-((1-carboxycyclopropylamino)methyl)-5a,5b,8,8,11a-pentamethyl-1-(prop-1-en-2-yl)-2,3,3a,4,5,5a,5b,6,7,7a,8,11,11a,11b,12,13,13a,13b-octadecahydro-1H-cyclopenta[a]chrysen-9-yl)benzoic acid] | < 100
C=C(C)[C@@H]1CC[C@]2(CNC(=O)CCC(=O)OC)CC[C@]3(C)[C@H](CC[C@@H]4[C@@]5(C)CC=C(c6ccc(C(=O)O)cc6)C(C)(C)[C@@H]5CC[C@]43C)[C@@H]12 [Example 170, 4-((1R,3aS,5aR,5bR,7aR,11aS,11bR,13aR,13bR)-3a-((4-methoxy-4-oxobutanamido)methyl)-5a,5b,8,8,11a-pentamethyl-1-(prop-1-en-2-yl)-2,3,3a,4,5,5a,5b,6,7,7a,8,11,11a,11b,12,13,13a,13b-octadecahydro-1H-cyclopenta[a]chrysen-9-yl)benzoic acid] | < 100

Same assay, conditions: NL43, MT-2 cells infected 4-5 days with NLRluc recombinant virus, numeric value

SMILES | EC50 [nM]
C=C(C)[C@@H]1CC[C@]2(CNC(=O)Nc3cccnc3)CC[C@]3(C)[C@H](CC[C@@H]4[C@@]5(C)CC=C(c6ccc(C(=O)O)cc6)C(C)(C)[C@@H]5CC[C@]43C)[C@@H]12 [Example 159, 4-((1R,3aS,5aR,5bR,7aR,11aS,11bR,13aR,13bR)-5a,5b,8,8,11a-pentamethyl-1-(prop-1-en-2-yl)-3a-((3-pyridin-3-ylureido)methyl)-2,3,3a,4,5,5a,5b,6,7,7a,8,11,11a,11b,12,13,13a,13b-octadecahydro-1H-cyclopenta[a]chrysen-9-yl)benzoic acid] | 10
